Reference: patent publication US6693108B2, “Inhibitors of c-JUN N terminal kinases (JNK) and other protein kinases” (Vertex Pharmaceuticals Incorporated, priority 1999, dated 2004)

The molecules below were run against T1, activated JNK3 (Homo sapiens, UniProt P53779) (assay: JNK3 inhibition, spectrophotometric coupled-enzyme assay). Details: read-out: Activity in the JNK3 Inhibition Assay (Ki rating).
T1 construct: One such construct encodes amino acid residues Ser40-Glu402 of JNK3α1 and is preceded by Met and Gly residues; Met-Gly (initiation Met plus Gly added to create the NcoI site) (N); made in house; host or cells: E. coli BL21 (DE3)
T1 sequence (P53779 40-402): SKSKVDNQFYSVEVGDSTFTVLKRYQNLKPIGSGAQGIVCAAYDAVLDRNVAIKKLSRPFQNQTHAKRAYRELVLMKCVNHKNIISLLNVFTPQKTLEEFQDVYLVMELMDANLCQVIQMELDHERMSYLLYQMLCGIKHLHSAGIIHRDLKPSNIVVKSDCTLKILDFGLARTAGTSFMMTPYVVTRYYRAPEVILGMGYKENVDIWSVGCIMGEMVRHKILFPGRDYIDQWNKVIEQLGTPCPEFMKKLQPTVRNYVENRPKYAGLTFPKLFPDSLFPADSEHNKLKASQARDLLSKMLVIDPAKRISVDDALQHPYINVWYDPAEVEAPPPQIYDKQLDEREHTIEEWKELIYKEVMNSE
Format: biochemical
Text: A BLAST search of the EST database using the published JNK3α1 cDNA as a query identified an EST clone (#632588) that contained the entire coding sequence for human JNK3α1. Polymerase chain reactions (PCR) using pfu polymerase (Strategene) were used to introduce restriction sites into the cDNA for cloning into the pET-15B expression vector at the NcoI and BamHI sites. The protein was expressed in E. coli. […] This truncation corresponds to Ser 2 of JNK1 and JNK2 proteins, and is preceded by a methionine (initiation) and a glycine residue. The glycine residue was added in order to introduce an NcoI site for cloning into the expression vector. In addition, systematic C-terminal truncations were performed by PCR to identify a construct that give rise to diffraction-quality crystals.
5 mg of JNK3 was diluted to 0.5 mg/ml in 50 mM HEPES buffer, pH 7.5, containing 100 mM NaCl, 5 mM DTT, 20 mM MgCl2 and 1 mM ATP. GST-MKK7(DD) was added at a molar ratio of 1:2.5 GST-MKK7:JNK3. After incubation for 30 minutes at 25° C., the reaction mixture was concentrated 5-fold by ultrafiltration in a Centriprep-30 (Amicon, Beverly, Mass.), diluted to 10 ml and an additional 1 mM ATP added. This procedure was repeated three times to remove ADP and replenish ATP. The final addition of ATP was 5 mM and the mixture incubated overnight at 4° C.
The activated JNK3/GST-MKK7(DD) reaction mixture was exchanged into 50 mM HEPES buffer, pH 7.5, containing 5 mM DTT and 5% glycerol (w/v) by dialysis or ultrafiltration. The reaction mixture was adjusted to 1.1 M potassium phosphate, pH 7.5, and purified by hydrophobic interaction chromatography (at 25° C.) using a Rainin Hydropore column. […] Activated JNK3 (i.e. doubly phosphorylated JNK3) was stored at −70° C. at 0.25-1 mg/ml.
Compounds were assayed for the inhibition of JNK3 by a spectrophotometric coupled-enzyme assay. In this assay, a fixed concentration of activated JNK3 (10 nM) was incubated with various concentrations of a potential inhibitor dissolved in DMSO for 10 minutes at 30° C. in a buffer containing 0.1 M HEPES buffer, pH 7.5, containing 10 mM MgCl2, 2.5 mM phosphoenolpyruvate, 200 μM NADH, 150 μg/mL pyruvate kinase, 50 μg/mL lactate dehydrogenase, and 200 μM EGF receptor peptide. […] The reaction was initiated by the addition of 10 μM ATP and the assay plate is inserted into the spectrophotometer's assay plate compartment that was maintained at 30° C. The decrease of absorbance at 340 nm was monitored as a function of time. The rate data as a function of inhibitor concentration was fitted to competitive inhibition kinetic model to determine the Ki.
`Cc1ccnc(Nc2nccc(-c3c(-c4ccccc4)noc3C)n2)c1` [IIAA-12] was tested, and the Ki was < 100 nM.
In the case of `Cc1onc(-c2ccccc2)c1-c1ccnc(Nc2cccc3ccccc23)n1` [IIAA-13], the Ki is reported as < 100 nM.
With `COc1ccc2cc(Nc3nccc(-c4c(-c5c(F)cccc5F)noc4C)n3)ccc2c1` [IIAA-14] the Ki was < 100 nM.
A Ki of 100 to 1000 nM was found for `Cc1ccc2ccccc2c1Nc1nccc(-c2c(-c3ccccc3)noc2C)n1` [IIAA-15] in this work.
`COC(=O)c1ccc2cc(Nc3nccc(-c4c(-c5ccccc5)noc4C)n3)ccc2c1` [IIAA-16] was tested, and the Ki was < 100 nM.
For `COc1ccc2ccccc2c1Nc1nccc(-c2c(-c3ccccc3)noc2C)n1` [IIAA-17], the Ki was > 1000 nM.
A Ki of 100 to 1000 nM was found for `COCc1ccc2ccccc2c1Nc1nccc(-c2c(-c3ccccc3)noc2C)n1` [IIAA-18] in this work.
With `COc1ccc2cc(Nc3nccc(-c4c(-c5ccccc5C)noc4C)n3)ccc2c1` [IIAA-19] the Ki was < 100 nM.
A Ki of 100 to 1000 nM was found for `Cc1ccc2cc(Nc3nccc(-c4c(-c5ccccc5C)noc4C)n3)ccc2n1` [IIAA-20] in this work.
A Ki of 100 to 1000 nM was found for `Cc1ccc2cc(Nc3nccc(-c4c(-c5cccc([N+](=O)[O-])c5)noc4C)n3)ccc2n1` [IIAA-22] in this work.
A Ki of 100 to 1000 nM was found for `Cc1ccc2cc(Nc3nccc(-c4c(-c5cccc(C#N)c5)noc4C)n3)ccc2n1` [IIAA-23] in this work.
For `Cc1onc(-c2ccccc2)c1-c1ccnc(NC2CCCCC2)n1` [IIAA-24], the Ki was < 100 nM.
For `Cc1onc(-c2ccccc2)c1-c1ccnc(NC2Cc3ccccc3C2)n1` [IIAA-25], the Ki was < 100 nM.
A Ki of 100 to 1000 nM was found for `Cc1onc(-c2ccccc2)c1-c1ccnc(NC2CCN(Cc3ccccc3)CC2)n1` [IIAA-27] in this work.
A Ki of 100 to 1000 nM was found for `Cc1onc(-c2ccccc2)c1-c1ccnc(NCC2CCCO2)n1` (stereo not drawn) [IIAA-29] in this work.
For `CCOC(=O)N1CCC(Nc2nccc(-c3c(-c4ccccc4)noc3C)n2)CC1` [IIAA-31], the Ki was < 100 nM.
A Ki of 100 to 1000 nM was found for `Cc1onc(-c2ccccc2)c1-c1ccnc(NC2CCNCC2)n1` [IIAA-32] in this work.
With `Cc1onc(-c2ccccc2)c1-c1ccnc(N[C@H]2CC[C@H](O)CC2)n1` [IIAA-36] the Ki was < 100 nM.
For `Cc1onc(-c2ccccc2)c1-c1ccnc(NC2CCC(=O)CC2)n1` [IIAA-38], the Ki was < 100 nM.
A Ki of 100 to 1000 nM was found for `Cc1onc(-c2ccccc2)c1-c1ccnc(NC(=O)c2ccccc2)n1` [IIIA-1] in this work.
With `Cc1onc(-c2ccccc2)c1-c1ccnc(NC(=O)c2ccccc2Br)n1` [IIIA-2] the Ki was > 1000 nM.
A Ki of 100 to 1000 nM was found for `Cc1onc(-c2ccccc2)c1-c1ccnc(NC(=O)c2ccccc2F)n1` [IIIA-3] in this work.
`Cc1onc(-c2ccccc2)c1-c1ccnc(NC(=O)c2ccccc2Cl)n1` [IIIA-4] was tested, and the Ki was > 1000 nM.
In the case of `Cc1ccccc1C(=O)Nc1nccc(-c2c(-c3ccccc3)noc2C)n1` [IIIA-5], the Ki is reported as > 1000 nM.
A Ki of 100 to 1000 nM was found for `Cc1cccc(C(=O)Nc2nccc(-c3c(-c4ccccc4)noc3C)n2)c1` [IIIA-6] in this work.
A Ki of 100 to 1000 nM was found for `COc1ccc(C(=O)Nc2nccc(-c3c(-c4ccccc4)noc3C)n2)cc1` [IIIA-7] in this work.
A Ki of 100 to 1000 nM was found for `COc1ccc(C(=O)Nc2nccc(-c3c(-c4ccccc4)noc3C)n2)cc1OC` [IIIA-8] in this work.
`COc1ccc(C(=O)Nc2nccc(-c3c(-c4ccccc4)noc3C)n2)c(OC)c1` [IIIA-9] was tested, and the Ki was > 1000 nM.
`COc1cccc(OC)c1C(=O)Nc1nccc(-c2c(-c3ccccc3)noc2C)n1` [IIIA-10] was tested, and the Ki was > 1000 nM.
A Ki of 100 to 1000 nM was found for `Cc1onc(-c2ccccc2)c1-c1ccnc(NC(=O)c2ccc(C#N)cc2)n1` [IIIA-11] in this work.
A Ki of 100 to 1000 nM was found for `Cc1onc(-c2ccccc2)c1-c1ccnc(NC(=O)c2ccc(F)cc2)n1` [IIIA-14] in this work.
`Cc1onc(-c2ccccc2)c1-c1ccnc(NC(=O)c2cccs2)n1` [IIIA-15] was tested, and the Ki was < 100 nM.
A Ki of 100 to 1000 nM was found for `COc1cc(C(=O)Nc2nccc(-c3c(-c4ccccc4C)noc3C)n2)cc(OC)c1OC` [IIIA-18] in this work.
A Ki of 100 to 1000 nM was found for `COc1cccc(C(=O)Nc2nccc(-c3c(-c4ccccc4C)noc3C)n2)c1` [IIIA-19] in this work.
A Ki of 100 to 1000 nM was found for `COc1ccc(C(=O)Nc2nccc(-c3c(-c4ccccc4C)noc3C)n2)cc1` [IIIA-20] in this work.
A Ki of 100 to 1000 nM was found for `COc1cc(OC)cc(C(=O)Nc2nccc(-c3c(-c4ccccc4C)noc3C)n2)c1` [IIIA-21] in this work.
For `COc1cc(C(=O)Nc2nccc(-c3c(-c4ccccc4C(F)(F)F)noc3C)n2)cc(OC)c1OC` [IIIA-22], the Ki was > 1000 nM.
`COc1cccc(C(=O)Nc2nccc(-c3c(-c4ccccc4C(F)(F)F)noc3C)n2)c1` [IIIA-23] was tested, and the Ki was > 1000 nM.
For `COc1ccc(C(=O)Nc2nccc(-c3c(-c4ccccc4C(F)(F)F)noc3C)n2)cc1` [IIIA-24], the Ki was > 1000 nM.
With `COc1cc(OC)cc(C(=O)Nc2nccc(-c3c(-c4ccccc4C(F)(F)F)noc3C)n2)c1` [IIIA-25] the Ki was > 1000 nM.
A Ki of 100 to 1000 nM was found for `COc1cc(C(=O)Nc2nccc(-c3c(-c4cccc(OCc5ccccc5)c4)noc3C)n2)cc(OC)c1OC` [IIIA-30] in this work.
A Ki of 100 to 1000 nM was found for `COc1cccc(C(=O)Nc2nccc(-c3c(-c4cccc(OCc5ccccc5)c4)noc3C)n2)c1` [IIIA-31] in this work.
A Ki of 100 to 1000 nM was found for `COc1ccc(C(=O)Nc2nccc(-c3c(-c4cccc(OCc5ccccc5)c4)noc3C)n2)cc1` [IIIA-32] in this work.
A Ki of 100 to 1000 nM was found for `COc1cc(OC)cc(C(=O)Nc2nccc(-c3c(-c4cccc(OCc5ccccc5)c4)noc3C)n2)c1` [IIIA-33] in this work.
For `COc1cc(C(=O)Nc2nccc(-c3c(-c4cccc([N+](=O)[O-])c4)noc3C)n2)cc(OC)c1OC` [IIIA-34], the Ki was > 1000 nM.
For `COc1cccc(C(=O)Nc2nccc(-c3c(-c4cccc([N+](=O)[O-])c4)noc3C)n2)c1` [IIIA-35], the Ki was > 1000 nM.
In the case of `COc1ccc(C(=O)Nc2nccc(-c3c(-c4cccc([N+](=O)[O-])c4)noc3C)n2)cc1` [IIIA-36], the Ki is reported as > 1000 nM.
`COc1cc(OC)cc(C(=O)Nc2nccc(-c3c(-c4cccc([N+](=O)[O-])c4)noc3C)n2)c1` [IIIA-37] was tested, and the Ki was > 1000 nM.
For `COc1cc(C(=O)Nc2nccc(-c3c(-c4cccc(C#N)c4)noc3C)n2)cc(OC)c1OC` [IIIA-38], the Ki was > 1000 nM.
`COc1cccc(C(=O)Nc2nccc(-c3c(-c4cccc(C#N)c4)noc3C)n2)c1` [IIIA-39] was tested, and the Ki was > 1000 nM.
With `COc1ccc(C(=O)Nc2nccc(-c3c(-c4cccc(C#N)c4)noc3C)n2)cc1` [IIIA-40] the Ki was > 1000 nM.
`COc1cc(OC)cc(C(=O)Nc2nccc(-c3c(-c4cccc(C#N)c4)noc3C)n2)c1` [IIIA-41] was tested, and the Ki was > 1000 nM.
A Ki of 100 to 1000 nM was found for `COc1cc(OC)cc(C(=O)Nc2nccc(-c3c(-c4ccccc4)noc3C)n2)c1` [IIIA-42] in this work.
With `Cc1onc(-c2ccccc2)c1-c1ccnc(NC(=O)c2cccc(C#N)c2)n1` [IIIA-43] the Ki was < 100 nM.
A Ki of 100 to 1000 nM was found for `COC(=O)c1ccc(C(=O)Nc2nccc(-c3c(-c4ccccc4)noc3C)n2)cc1` [IIIA-44] in this work.
A Ki of 100 to 1000 nM was found for `Cc1onc(-c2cccc(F)c2)c1-c1ccnc(NC(=O)c2cccc(Cl)c2)n1` [IIIA-45] in this work.
A Ki of 100 to 1000 nM was found for `COc1cccc(C(=O)Nc2nccc(-c3c(-c4cccc(F)c4)noc3C)n2)c1` [IIIA-46] in this work.
A Ki of 100 to 1000 nM was found for `COc1cc(OC)cc(C(=O)Nc2nccc(-c3c(-c4cccc(F)c4)noc3C)n2)c1` [IIIA-47] in this work.
A Ki of 100 to 1000 nM was found for `Cc1cccc(C(=O)Nc2nccc(-c3c(-c4cccc(F)c4)noc3C)n2)c1` [IIIA-48] in this work.
A Ki of 100 to 1000 nM was found for `Cc1onc(-c2cccc(F)c2)c1-c1ccnc(NC(=O)c2ccc(F)cc2)n1` [IIIA-49] in this work.
A Ki of 100 to 1000 nM was found for `Cc1ccc(C(=O)Nc2nccc(-c3c(-c4cccc(F)c4)noc3C)n2)cc1` [IIIA-50] in this work.
A Ki of 100 to 1000 nM was found for `Cc1onc(-c2cccc(F)c2)c1-c1ccnc(NC(=O)c2cccc(C#N)c2)n1` [IIIA-51] in this work.
A Ki of 100 to 1000 nM was found for `COc1cc(C(=O)Nc2nccc(-c3c(-c4cccc(F)c4)noc3C)n2)cc(OC)c1OC` [IIIA-52] in this work.
A Ki of 100 to 1000 nM was found for `Cc1onc(-c2cccc(F)c2)c1-c1ccnc(NC(=O)c2ccc3ccccc3c2)n1` [IIIA-53] in this work.
A Ki of 100 to 1000 nM was found for `Cc1onc(-c2ccccc2F)c1-c1ccnc(NC(=O)c2cccc(Cl)c2)n1` [IIIA-54] in this work.
A Ki of 100 to 1000 nM was found for `COc1cccc(C(=O)Nc2nccc(-c3c(-c4ccccc4F)noc3C)n2)c1` [IIIA-55] in this work.
A Ki of 100 to 1000 nM was found for `COc1cc(OC)cc(C(=O)Nc2nccc(-c3c(-c4ccccc4F)noc3C)n2)c1` [IIIA-56] in this work.
A Ki of 100 to 1000 nM was found for `Cc1cccc(C(=O)Nc2nccc(-c3c(-c4ccccc4F)noc3C)n2)c1` [IIIA-57] in this work.
A Ki of 100 to 1000 nM was found for `COc1ccc(C(=O)Nc2nccc(-c3c(-c4ccccc4F)noc3C)n2)cc1` [IIIA-58] in this work.
